The test system of one experiment is L1210 (leukemia). Description: Growth inhibition (MTT) of L1210 cells. Type of experiment: cell-based, murine. To be noted: Mus musculus, 48 hours, read-out: 50% growth inhibition concentration. On the procedure:
(§1) Note that the tests were performed as follows. Various kinds of murine cancer cells (L1210 (leukemia)), Colon 26 (colon cancer), B16BL6 (malignant melanoma)) were suspended in RPMI1640 medium containing 10% fetal calf serum and adjusted to 2×10^4 cells/well and 0.1 ml of each of the suspensions was seeded on a 96-well plate. At the same time, a predetermined amount of the substance F-1490 was added and the resultants were cultivated at 37° C. for 48 hours in the air containing 5% CO2. Further, 10 μl of 0.5% MTT (3-[4,5-dimethylthiazol-2-yl] […] tetrazolium bromide) was added and the resultants were cultivated for 4 hours. After the cultivation, 0.1 ml of 10% SDS-0.01N hydrochloric acid was added and absorbance at 570 nm was measured to determine 50% growth inhibition concentration.

In experiment [1] the test system is B16BL6 (malignant melanoma). Description: Growth inhibition (MTT) of B16BL6 cells. Type of experiment: cell-based, murine. To be noted: Mus musculus, B16-BL6, 48 hours, read-out: 50% growth inhibition concentration. As for the experimental part:
as §1

The subject of experiment [2] is bone marrow cells (differentiation into osteoclasts). Description: Osteoclast differentiation inhibition: count of tartaric acid-resistant acid phosphatase-positive cells. In kind it is cell-based, C57BL/6 mouse. On the procedure:
Bone marrow cells were collected from a C57BL/6mouse (female, 6 weeks old) and suspended in RPMI1460 medium that contains 10% fetal calf serum, 1 mM pyruvic acid, 0.1 mM non-essential amino acids (manufactured by Gibco), 500 μM 2-mercaptoethanol, 200 ng/ml parathyroid hormone related protein (PTHrP) and 50 μg/ml L-ascorbic acid and 1 ml of the suspension adjusted to a cell population of 1.5×10^6 cells/well was inoculated on a 24-well microplate. At the same time a test sample was added in appropriate amounts. On days 2 and 4 from the start of the cultivation, half the amount of the medium is exchanged with fresh medium containing the test sample. On day 7 from the start of the cultivation, the medium is removed by suction and the cells are fixed with an acetone:methanol (1:1) solution, to thereby allow tartaric acid-resistant acid phosphatase-positive cells stained. That is, 0.4 ml of a 0.2-M acetate buffer (pH 5.2) containing a staining fluid (0.1 mg/ml Naphthol AS-MX phosphate (Sigma AB), 0.6 mg/ml Fast red violet LB sal (Sigma AB) and 20 mM tartaric acid is added to each well and the resultants are allowed to react at 37° C. for 1 hour. After color development, the number of tartaric acid-resistant acid phosphatase-positive cells, which is an index of differentiation into osteoclasts, is measured under a microscope.
When the test sample contains a substance that is effective for inhibition of osteoclast differentiation, the occurrence of tartaric acid-resistant acid phosphatase-positive cells is inhibited. From changes in the above-mentioned number of cells depending on the concentration of the test sample, an effective concentration range of the test sample can be obtained.

The subject of another experiment is Colon 26 (colon cancer). Description: Growth inhibition (MTT) of Colon 26 cells. In kind it is cell-based, murine. To be noted: Mus musculus, Colon26 cells, 48 hours, read-out: 50% growth inhibition concentration. On the procedure: as §1

Here are results for one compound from US7060821B2, “Osteoclast differentiation inhibitors” (Mercian Corporation, priority 2002, dated 2006).

Converted amounts (≈) assume the structure as drawn.

In the case of `O=C(O)c1cccc2c1NC1CCCCC1(O)O2` (centres unmarked) [Substance F-1490-A], the IC50 in the experiment with L1210 (leukemia) is more than 50 µg/mL; in experiment [1], more than 50 µg/mL; in experiment [2] (Mus musculus, Table 1, osteoclast differentiation test, read-out: 50% growth inhibition concentration), 0.65 µg/mL (≈ 2.61 µM); in the experiment with Colon 26 (colon cancer) it was more than 50 µg/mL. The inhibition (commonly the change of the read-out against control, counted positive when it falls) at 0.2 µg/mL in experiment [2] (Osteoclast, 168 h, concentration 0.20 μg/ml, day 7, PTHrP-stimulated mouse bone marrow cells, read-out: Inhibition rate of differentiation into osteoclasts (%)) was 2%. Further, the inhibition at 0.78 µg/mL in experiment [2] (Osteoclast, 168 h, concentration 0.78 μg/ml, day 7, PTHrP-stimulated mouse bone marrow cells, read-out: Inhibition rate of differentiation into osteoclasts (%)) came to 63%. The inhibition at 3.1 µg/mL in experiment [2] (Osteoclast, 168 h, concentration 3.10 μg/ml, day 7, PTHrP-stimulated mouse bone marrow cells, read-out: Inhibition rate of differentiation into osteoclasts (%)) came to 74%. Also, in experiment [2] (Osteoclast, 168 h, concentration 12.50 μg/ml, day 7, PTHrP-stimulated mouse bone marrow cells, read-out: Inhibition rate of differentiation into osteoclasts (%)), the inhibition at 12.5 µg/mL was found to be 87%.
